{
  "source": "patent US10206944B2",
  "about": "“Chondroitin for use in medicine” (ALTERGON S.A., priority 2012, dated 2019)",
  "key": {"[1]": {"system": "HT-1376 cells", "experiment": "Flow cytometry of apoptotic and necrotic cells (Annexin V-FITC/PI)", "assay_type": "cell-based, human", "set-up": "unit not given here", "settings": "48 h, alone or combined", "procedure": "Flow cytometry was used to evaluate the quantity of apoptotic or necrotic cells. Fluorescein isothiocyanate (Annexin V-FITC) combined with propidium iodide (PI) was used as marker; the apoptotic cells were Annexin V-FITC positive and PI negative, and the necrotic cells were Annexin V-FITC positive and PI positive. The cells were labelled by incubating them with Annexin V-FITC (Diagnostics MedSystems) and PI (Sigma) in a binding buffer (10 mM HEPES, pH 7.4, 150 mM NaCl, 5 mM KCl, 1 mM MgCl2, 2.5 mM CaCl2) for 10 min at ambient temperature, and then washing and resuspending the cell material in the same buffer. The apoptotic and necrotic cells were analysed by flow cytometry (FACScan, Becton-Dickinson), acquiring an average of 2×10^4 events per sample, with determinations in triplicate on three separate experiments."}, "[2]": {"system": "human bladder carcinoma cell line HT-1376", "experiment": "Inhibition of growth of bladder cancer cells and polysaccharide-antitumoral synergism", "assay_type": "cell-based", "settings": "HT-1376, after 72 h, product taken individually", "experimental": "Human bladder cancer cell lines HT-1376 were used as system model, evaluating the ability of different combinations of GEM or MCC and C or CS to inhibit growth.\nHuman bladder carcinoma cell line HT-1376 (American Type Tissue Cultures Collection, Rockville, Md.) was cultured in DMEM supplemented with heat inactivated 10% foetal bovine serum (FBS), 20 mM 4,2-hydroxyethyl-1-piperazinyl-ethanesulphonic acid (HEPES), 100 U/mL penicillin, 100 µg/mL streptomycin, 1% w/v sodium L-glutamine and 1% w/v pyruvate. The cells were cultured in a humidified atmosphere comprising 95% air/5% CO2 at 37° C. For the study of synergism between C or CS and MMC or GEM in inhibiting the growth of HT-1376, the cells were seeded in 96-well plates at a density of 6*10^3 cells/well. After 24 hours' incubation at 37° C. the cells were treated with different concentrations of C or CS or GEM or MMC, and polysaccharide-antitumoral combinations thereof. The evaluation of polysaccharide-antitumoral synergism was based on analysis after 72 hours' treatment of the fraction curves of the surviving cells versus the concentration of antitumoral, conducted with the Calcusyn computer program (Biosoft, Ferguson, Mo.). The combination index values (CI) of <1, 1 and >1 indicate synergy, additivity and antagonism respectively in the polysaccharide-antitumoral interaction."}, "[3]": {"system": "SOD-2", "experiment": "Real-Time PCR gene expression of SOD-2 in IL-1β-treated human chondrocytes", "assay_type": "cell-based", "settings": "2 h pre-treatment 1% w/v, IL-1β 10 ng/mL 24 h; untreated cells taken as 1", "description": "The objective of the study was to evaluate the effects of chondroitin or chondroitin sulphate on gene expression of GRP78 and SOD-2 in human chondrocytes, after treatment with the pro-inflammatory cytokine IL-1β.\nHuman chondrocytes extracted from nasal cartilage treated with IL-1β, a pro-inflammatory cytokine which acts as mediator in the activation of the biological mechanisms underlying the onset of OA, were used in the study. In particular, the modulation of two markers involved in the manifestation of the inflammatory state, chaperonin GRP78 and the enzyme superoxide dismutase (SOD-2), was evaluated.\nIn a standard experiment, 10^4 cells were seeded per well of a 24-well multiwell plate, and after 5 days, when confluency was reached, the cells were starved for 24 hours (incubation in DMEM with 0.5% FBS). The cells were then treated for 2 h with 1% w/v of chondroitin (C) or chondroitin sulphate (CS) (endotoxin content ≤0.1 EU/mg), in DMEM without FBS; the control was maintained under the same conditions, but without the addition of C or CS. IL-1 β at the concentration of 10 ng/mL was then added to the cultures. After 24 h hours' incubation the cells were recovered and the RNA was extracted from them with Trizol Reagent, as described in the kit manual (Life Technologies Ltd, Milan Italy). […]"}, "[4]": {"system": "GRP78", "experiment": "Western blotting protein expression of GRP78 in IL-1β-treated human chondrocytes", "assay_type": "cell-based", "settings": "densitometric analysis of Western blotting versus tubulin; control = 1", "procedure": "(§1) In a standard experiment, 10^4 cells were seeded per well of a 24-well multiwell plate, and after 5 days, when confluency was reached, the cells were starved for 24 hours (incubation in DMEM with 0.5% FBS). The cells were then treated for 2 h with 1% w/v of chondroitin (C) or chondroitin sulphate (CS) (endotoxin content ≤0.1 EU/mg), in DMEM without FBS; the control was maintained under the same conditions, but without the addition of C or CS. IL-1 β at the concentration of 10 ng/mL was then added to the cultures. After 24 h hours' incubation the cells were recovered and the RNA was extracted from them with Trizol Reagent, as described in the kit manual (Life Technologies Ltd, Milan Italy). The gene expression values are confirmed by the protein expression data obtained in Western blotting by densitometric analysis of the GRP78 protein bands and SOD2 compared with the constitutive tubulin gene (Table 6)"}, "[5]": {"system": "SOD-2", "experiment": "Western blotting protein expression of SOD-2 in IL-1β-treated human chondrocytes", "assay_type": "cell-based", "settings": "densitometric analysis of Western blotting versus tubulin; control = 1", "procedure": "as §1"}, "[6]": {"system": "volunteers suffering from dry eye", "experiment": "Ophthalmic eyedrops in volunteers suffering from dry eye", "assay_type": "in vivo, human", "procedure": "Two ophthalmic preparations were compared: a conventional one based on hyaluronic acid and one based on chondroitin, both at the concentration of 3% w/v in NaCl saline solution at pH 7.4. The eyedrops were prepared in single-dose packaging sterilised in the autoclave. […] The volunteers, of both sexes, aged between 45 and 60 years, were randomised into two groups of 15, and treated with the two types of eyedrops. Under medical control the inflammatory state of the corneal surface was evaluated at the beginning and end of the treatment, and the evaluations of the treated patients relating to tolerability, duration of the wetting effect, and visual alteration after application, were recorded. A scale of 1 to 5 was used for the clinical evaluations and the patients' evaluations, where 5 represents optimum resolution of the pathological condition and its sequelae. […]"}, "[7]": {"system": "volunteers suffering from severe impairment of the knee joint", "experiment": "Viscosupplementation and cartilage repair in volunteers with knee joint impairment", "assay_type": "in vivo, human", "procedure": "The aim of the study was to evaluate the therapeutic potential of the hyaluronic acid-chondroitin combination (HA-C) in joint disease associated with damage to the cartilaginous component of the joint. The study was conducted on 30 volunteers suffering from severe impairment of the knee joint, with damage to the cartilaginous component, evident ongoing inflammatory symptoms, swelling and pain. The volunteers, aged between 25 and 45 years, of both sexes, were randomised into three groups of 10; the control group was treated with saline, the HA group with hyaluronic acid and the HA-C group with a mixture of hyaluronic acid and chondroitin. The viscosupplementation treatment was performed 3 times at 2-month intervals by injecting into the joint 2 mL of a sterile, pyrogen-free solution consisting of a saline solution (0.9% NaCl) for the control group, a 20 mg/mL solution of hyaluronic acid 1,200 KDa for the HA group and a 20 mg/mL solution of hyaluronic acid 1,200 KDa+20 mg/mL of chondroitin for the HA-C group. Before and at the end of the 6-month study the volunteers underwent an X-ray and MRI scan of the joint. Three orthopaedic surgeons independently evaluated the development of the pathological symptoms (pain, inflammatory state and swelling), and repair of cartilage damage, over time (before treatment, and after 3 and 6 months), on a scale of 1 to 5 (where 1 represents absence of healing, and 5 indicates total remission of the pathological symptoms and complete repair of the damage to the cartilage tissue)."}, "[8]": {"settings": "0.04 μg/mL of C or CS and 0.15 μg/mL of GEM"}, "[9]": {"settings": "5.7 μg/mL of C or CS and 1.7 μg/mL of MMC"}},
  "data": [
    {"molecule": "Nc1ccn([C@@H]2O[C@H](CO)[C@@H](O)C2(F)F)c(=O)n1", "note": "[GEM, gemcitabine]", "values": [
      {"measurement": "Cell state: apoptotic advanced", "setting": "[1]; [8]", "value": "2 ± 1"},
      {"measurement": "Cell state: apoptotic early", "setting": "[1]; [8]", "value": "1 ± 1"},
      {"measurement": "Cell state: necrotic", "setting": "[1]; [8]", "value": "16 ± 3"},
      {"measurement": "Cell state: viable", "setting": "[1]; [8]", "value": "81 ± 3"},
      {"measurement": "IC50", "setting": "[2]; Homo sapiens, read-out: IC50 (50% inhibition of growth)", "value": 0.5, "unit": "µg/mL"}
    ]},
    {"molecule": "CO[C@@]12[C@H](COC(N)=O)C3=C(C(=O)C(C)=C(N)C3=O)N1C[C@@H]1N[C@@H]12", "note": "[MMC, mitomycin-C]", "values": [
      {"measurement": "Cell state: apoptotic advanced", "setting": "[1]; [9]", "value": "2 ± 1"},
      {"measurement": "Cell state: apoptotic early", "setting": "[1]; [9]", "value": "1 ± 1"},
      {"measurement": "Cell state: necrotic", "setting": "[1]; [9]", "value": "33 ± 1"},
      {"measurement": "Cell state: viable", "setting": "[1]; [9]", "value": "64 ± 5"},
      {"measurement": "IC50 (50% inhibition of growth)", "setting": "[2]", "value": 18, "unit": "μ/mL"}
    ]},
    {"molecule": "IL-1β: pro-inflammatory cytokine, 10 ng/mL, positive control", "values": [
      {"measurement": "gene expression of SOD-2", "setting": "[3]", "value": "22 ± 4"},
      {"measurement": "Protein expression value of GRP78", "setting": "[4]", "value": "1.15 ± 0.15"},
      {"measurement": "Protein expression value of SOD-2", "setting": "[5]", "value": "1.96 ± 0.20"}
    ]},
    {"molecule": "hyaluronic acid [HA, reference compound]", "values": [
      {"measurement": "Doctor: corneal inflammation", "setting": "[6]; 0 days, 3% w/v eyedrops, scale of 1 to 5, 5 optimum", "value": "1.0 ± 0.1"},
      {"measurement": "Patient: absence of visual alteration", "setting": "[6]; 10 days, scale of 1 to 5", "value": "3.5 ± 0.2"},
      {"measurement": "Patient: tolerability", "setting": "[6]; 10 days, scale of 1 to 5", "value": "3.8 ± 0.2"},
      {"measurement": "Patient: wetting effect", "setting": "[6]; 10 days, scale of 1 to 5", "value": "4.0 ± 0.2"},
      {"measurement": "Patient: absence of visual alteration", "setting": "[6]; 20 days, scale of 1 to 5", "value": "3.2 ± 0.1"},
      {"measurement": "Patient: tolerability", "setting": "[6]; 20 days, scale of 1 to 5", "value": "3.7 ± 0.3"},
      {"measurement": "Patient: wetting effect", "setting": "[6]; 20 days, scale of 1 to 5", "value": "4.1 ± 0.3"},
      {"measurement": "Doctor: corneal inflammation", "setting": "[6]; 30 days, 3% w/v eyedrops 4 times a day, scale of 1 to 5", "value": "3.5 ± 0.2"},
      {"measurement": "Patient: absence of visual alteration", "setting": "[6]; 30 days, scale of 1 to 5", "value": "3.6 ± 0.2"},
      {"measurement": "Patient: tolerability", "setting": "[6]; 30 days, scale of 1 to 5", "value": "3.9 ± 0.3"},
      {"measurement": "Patient: wetting effect", "setting": "[6]; 30 days, scale of 1 to 5", "value": "4.4 ± 0.3"},
      {"measurement": "Cartilage repair", "setting": "[7]; 0 months, scale of 1 to 5", "value": "1.0 ± 0.1"},
      {"measurement": "Inflammation", "setting": "[7]; 0 months, scale of 1 to 5", "value": "1.3 ± 0.2"},
      {"measurement": "Swelling", "setting": "[7]; 0 months, scale of 1 to 5", "value": "1.2 ± 0.1"},
      {"measurement": "Pain", "setting": "[7]; 0 months, scale of 1 to 5, 5 total remission", "value": "1.6 ± 0.2"},
      {"measurement": "Cartilage repair", "setting": "[7]; 3 months, scale of 1 to 5", "value": "1.5 ± 0.2"},
      {"measurement": "Inflammation", "setting": "[7]; 3 months, scale of 1 to 5", "value": "3.1 ± 0.2"},
      {"measurement": "Pain", "setting": "[7]; 3 months, scale of 1 to 5", "value": "3.1 ± 0.4"},
      {"measurement": "Swelling", "setting": "[7]; 3 months, scale of 1 to 5", "value": "3.1 ± 0.3"},
      {"measurement": "Inflammation", "setting": "[7]; 6 months, scale of 1 to 5", "value": "4.1 ± 0.5"},
      {"measurement": "Pain", "setting": "[7]; 6 months, scale of 1 to 5", "value": "4.0 ± 0.3"}
    ]}
  ]
}
